{
  "source": "patent US20230105108A1",
  "about": "“COMPOUNDS FOR THE TREATMENT OF BACTERIAL INFECTIONS AND POTENTIATION OF ANTIBIOTICS” (GEORGIA STATE UNIVERSITY RESEARCH FOUNDATION, INC., priority 2019, published 2023)",
  "key": {"MRSA (ATCC 33592)": {"tested_on": "MRSA (ATCC 33592)", "experiment": "MIC determination and sensitization fold on MRSA", "assay_type": "cell-based, methicillin-resistant Staphylococcus aureus", "settings": "MRSA; for Sensitization fold: rifampicin"}, "E. coli [1]": {"tested_on": "E. coli", "experiment": "Lysozyme assay (outer membrane disruption)", "assay_type": "cell-based", "settings": "for bacterial lysis by lysozyme in the presence of sensitizer: 50 μg/ml lysozyme, 10 min; for bacterial lysis by sensitizer itself: absence of lysozyme", "experimental": "Lysozyme assay to evaluate the disruption of Gram-negative bacteria out membrane by bacterial sensitizers. Lysozyme assay was performed based on literature reported method. E. coli was cultured in Mueller Hinton II cation-adjusted broth for overnight, centrifuged at 3000 g for 10 min, washed with HEPES buffer (pH=7.2) and then centrifuged again to obtain bacteria pallet. The pallet was then gently resuspended in HEPES buffer with 5 mM NaCN to obtain an E. coli suspension with OD600 between 0.8˜1.0. On a 96-well plate, each well was supplied with 100 μl lysozyme solution (100 μg/ml) containing 50 or 100 μg/ml bacterial sensitizers in HEPES buffer. To each well was added 100 μl E. coli suspension. The final concentration of lysozyme was 50 μg/ml. The plate was incubated at room temperature for 10 min and the OD600 was recorded. E. coli was also incubated with bacterial sensitizers in the absence of lysozyme to test if bacterial sensitizers would directly induce bacterial lysis. E. coli that was incubated with lysozyme alone or E. coli without any treatment were also used as negative control."}, "[2]": {"tested_on": "E. coli (lipid A part of LPS)", "experiment": "Dansyl-PMBN displacement assay", "assay_type": "binding", "settings": "E. coli with 10 μM Dansyl-PMBN; sensitizer 0 to 200 μM", "experimental": "Panel (C) depicts a Dansyl-PMBN displacement assay. […] The fluorescent intensity of 10 μM Dansyl-PMBN in HEPES buffer was recorded as baseline F0. Fluorescent intensity/%=(F1−Fx)/(F1−F0). […] All results are triplicates.\nDansyl-PMBN displacement assay. Dansyl-PMBN was synthesized according to literature procedure. Dansyl-PMBN was dissolved in H2O to make 500 μM stock. Bacterial sensitizers were dissolved in ethanol to make 10 mM stock solutions. […] The E. coli stock was centrifuged at 3000 g for 10 min, washed with HEPES buffer (pH=7.2) and then centrifuged again to obtain bacteria pallet. The pallet was then gently resuspended in HEPES buffer to obtain a E. coli suspension with OD600 about 0.3. The experiment was performed on 96-well plates. Each well was supplied with 100 μl coli suspension with 10 μM Dansyl-PMBN, then to each well, different concentrations of bacterial sensitizers were added to achieve a final concentration ranging from 0 to 200 μM.\nMg^2+ can bridge between adjacent lipid A and enhance the membrane integrity. […] This phenomenon was also observed on MD-100. The culture medium for E. coli is Muller Hinton Broth (Cation adjusted), which already has at least 0.5 mM Mg^2+, so the “zero concentration point of Mg^2+” in FIG. 4 represents the amount of exogenous Mg^2+, not the total Mg^2+ in the culture medium. […] A fluorescent conjugate of a polymyxin-B derivative (Dansyl-PMBN, Scheme 3), which would show increased fluorescent intensity after binding to the lipid A part of LPS, was used to further probe this issue. In the presence of another component that can also binding to lipid A, Dansyl-PMBN would be replaced, leading to decreased fluorescent intensity."}, "E. coli [3]": {"tested_on": "E. coli", "experiment": "Influence of exogenous LPS and Mg2+ on bacterial sensitizer", "assay_type": "cell-based", "settings": "for effect of extra LPS in culture media on sensitization: LPS 0 to 40 μM; for effect of Mg2+ on sensitization activity: exogenous Mg2+; for Sensitization fold: rifampicin", "experimental": "The MICs of bacterial sensitizer and antibiotic combination in the presence of LPS (ranging from 0 to 40 μM) or Mg^2+ (ranging from 0 to 20 mM) was determined as described above (Bacteria culture and MICs determination section).\nVarious experiments were then conducted to examine the molecular target(s). […] Briefly, E. coli was treated with 5 μg/ml MD-124 (about 10 μM) with varying concentrations of LPS (from 0 to 40 μM) for 20 h. Then OD600 was measured.\nBriefly, E. coli was treated with […] MD-124 (about 10 μM) with varying concentrations of Mg^2+ (from 0 to 15 mM) for 20 h. Then OD600 was measured."}, "E. coli strain NR698": {"tested_on": "E. coli strain NR698", "experiment": "Sensitization of outer membrane leaky E. coli strain NR698", "assay_type": "cell-based", "experimental": "Ery is short for erythromycin. […] E. coli NR698 was cultured with the antibiotic at various concentrations in the presence or absence of bacterial sensitizer for 24 h at 37° C. Then bacterial growth density was determined by measuring OD600. […] Then the growth density/% was calculated based on OD600.\nBacteria culture and MICs determination: Gram-negative bacteria were cultured in Mueller Hinton II cation-adjusted broth. Gram-positive bacteria were cultured in LB broth. Mycobacterium smegmatis was cultured in Middlebrook 7H9 Broth. MICs of antibiotics itself were determined by performing two-fold serial dilutions of antibiotics. MICs of antibiotics in the presence of bacterial sensitizers were determined by performing two-fold serial dilutions of antibiotics with or without a constant concentration of bacterial sensitizers. The MICs tests were performed on 96-well plates with a final volume of 200 μl Mueller Hinton II cation-adjusted broth in each well. Each well was inoculated with 5×10^5 CFU/ml bacteria and was incubated for 24 h at 37° C. with continuous shaking of 200 rpm. The bacterial density was then determined by OD600. Bacterial growth %=OD600 of antibiotic treatment group/OD600 of antibiotic non-treatment group. MICs was determined as the concentrations that inhibit more than 90% of bacteria growth."}},
  "note": "Where a name gives a salt, the structure may show the parent alone.",
  "data": [
    {"molecule": "N=C(N)c1ccc(COc2cc(OCc3ccc(C(=N)N)cc3)cc(C(F)(F)F)c2)cc1", "note": "[MD-124, 4,4′-(((5-(trifluoromethyl)-1,3-phenylene)bis(oxy))bis(methylene)) dibenzimidamide dihydrochloride]", "values": [
      {"measurement": "Sensitization fold", "setting": "MRSA (ATCC 33592); compound at 5 μM", "result": "32-fold at 5 μM"},
      {"measurement": "MIC", "setting": "MRSA (ATCC 33592); Staphylococcus aureus, 24 h, compound alone, read-out: MIC", "result": 10, "unit": "µM"},
      {"measurement": "bacterial lysis by lysozyme in the presence of sensitizer", "setting": "E. coli [1]; 25 μg/ml sensitizer", "result": "quick bacterial lysis"},
      {"measurement": "bacterial lysis by sensitizer itself", "setting": "E. coli [1]", "result": "did not lead to bacterial lysis"},
      {"measurement": "displacement of Dansyl-PMBN (fluorescent intensity)", "setting": "[2]", "result": "steadily decreased in a concentration dependent fashion"},
      {"measurement": "MIC of rifampicin with 5 μg/ml MD-124", "setting": "E. coli [3]; LPS 0 μM, rifampicin only 10 μg/ml", "result": 0.02},
      {"measurement": "effect of extra LPS in culture media on sensitization", "setting": "E. coli [3]", "result": "abolished the sensitization effect"},
      {"measurement": "MIC of rifampicin with 5 μg/ml MD-124", "setting": "E. coli [3]; LPS 5 μM", "result": 2.5},
      {"measurement": "MIC of rifampicin with 5 μg/ml MD-124", "setting": "E. coli [3]; LPS 10 μM", "result": 2.5},
      {"measurement": "MIC of rifampicin with 5 μg/ml MD-124", "setting": "E. coli [3]; LPS 20 μM", "result": 5},
      {"measurement": "MIC of rifampicin with 5 μg/ml MD-124", "setting": "E. coli [3]; LPS 40 μM", "result": 5},
      {"measurement": "MIC of rifampicin with 5 μg/ml MD-124", "setting": "E. coli [3]; LPS […]", "result": 1.25},
      {"measurement": "MIC of rifampicin with 5 μg/ml MD-124", "setting": "E. coli [3]; Mg2+ 0 mM, rifampicin only 10 μg/ml", "result": 0.02},
      {"measurement": "MIC of rifampicin with 5 μg/ml MD-124", "setting": "E. coli [3]; Mg2+ 1.25 mM", "result": 0.02},
      {"measurement": "MIC of rifampicin with 5 μg/ml MD-124", "setting": "E. coli [3]; Mg2+ 5 mM", "result": 1.25},
      {"measurement": "MIC of rifampicin with 5 μg/ml MD-124", "setting": "E. coli [3]; Mg2+ 10 mM", "result": 2.5},
      {"measurement": "MIC of rifampicin with 5 μg/ml MD-124", "setting": "E. coli [3]; Mg2+ 15 mM", "result": 5},
      {"measurement": "MIC of rifampicin with 5 μg/ml MD-124", "setting": "E. coli [3]; Mg2+ […]", "result": 0.04},
      {"measurement": "effect of Mg2+ on sensitization activity", "setting": "E. coli [3]", "result": "dampened the bacterial sensitization activity"},
      {"measurement": "Sensitization fold", "setting": "E. coli [3]; 5 μg/ml MD-124, LPS 0 μM", "result": 512, "unit": "fold"},
      {"measurement": "Sensitization fold", "setting": "E. coli [3]; 5 μg/ml MD-124, LPS 5 μM", "result": 4, "unit": "fold"},
      {"measurement": "Sensitization fold", "setting": "E. coli [3]; 5 μg/ml MD-124, LPS 10 μM", "result": 4, "unit": "fold"},
      {"measurement": "Sensitization fold", "setting": "E. coli [3]; 5 μg/ml MD-124, LPS 20 μM", "result": 2, "unit": "fold"},
      {"measurement": "Sensitization fold", "setting": "E. coli [3]; 5 μg/ml MD-124, LPS 40 μM", "result": 2, "unit": "fold"},
      {"measurement": "Sensitization fold", "setting": "E. coli [3]; 5 μg/ml MD-124, LPS […]", "result": 8, "unit": "fold"},
      {"measurement": "Sensitization fold", "setting": "E. coli [3]; 5 μg/ml MD-124, Mg2+ 0 mM", "result": 512, "unit": "fold"},
      {"measurement": "Sensitization fold", "setting": "E. coli [3]; 5 μg/ml MD-124, Mg2+ 5 mM", "result": 8, "unit": "fold"},
      {"measurement": "Sensitization fold", "setting": "E. coli [3]; 5 μg/ml MD-124, Mg2+ 10 mM", "result": 4, "unit": "fold"},
      {"measurement": "Sensitization fold", "setting": "E. coli [3]; 5 μg/ml MD-124, Mg2+ 15 mM", "result": 2, "unit": "fold"},
      {"measurement": "Sensitization fold", "setting": "E. coli [3]; 5 μg/ml MD-124, Mg2+ […]", "result": 256, "unit": "fold"},
      {"measurement": "Sensitization fold", "setting": "E. coli strain NR698; E. coli NR698 towards clarithromycin, 5 μg/ml sensitizer", "result": 4, "unit": "fold"}
    ]},
    {"molecule": "Cc1cc(COc2ccc(C(=N)N)cc2)cc(COc2ccc(C(=N)N)cc2)c1", "note": "[MD-100, 4,4′-(((5-methyl-1,3-phenylene)bis(methylene))bis(oxy))dibenzimidamide dihydrochloride]", "values": [
      {"measurement": "Sensitization fold", "setting": "MRSA (ATCC 33592); compound at 6 μM", "result": "32-fold at 6 μM"},
      {"measurement": "bacterial lysis by lysozyme in the presence of sensitizer", "setting": "E. coli [1]; 50 μg/ml sensitizer", "result": "quick bacterial lysis"},
      {"measurement": "bacterial lysis by sensitizer itself", "setting": "E. coli [1]", "result": "did not lead to bacterial lysis"},
      {"measurement": "displacement of Dansyl-PMBN (fluorescent intensity)", "setting": "[2]", "result": "able to displace Dansyl-PMBN although not as much as MD-124"},
      {"measurement": "effect of extra LPS in culture media on sensitization", "setting": "E. coli [3]", "result": "abolished the sensitization effect"},
      {"measurement": "effect of Mg2+ on sensitization activity", "setting": "E. coli [3]", "result": "decreased the sensitization ability"},
      {"measurement": "sensitization of E. coli strain NR698", "setting": "E. coli strain NR698; erythromycin, MD-100, 24 h", "result": "failed to sensitize"}
    ]}
  ]
}
